*1 amine or outer side, *2 acyl side, *3 side chain or, on linkers, in order; H or OH if unused. Where a SMILES comes first, the peptide text is derived from it. Bridges are numbered along the chain shown (N, C = ends). [ ]: non-standard residue; d: D form. Trp(5-Cl) = N[C@@H](Cc1c[nH]c2ccc(Cl)cc12)C(=O)O; Phe(3,4-Cl2) = N[C@@H](Cc1ccc(Cl)c(Cl)c1)C(=O)O; Trp(5-OH) = N[C@@H](Cc1c[nH]c2ccc(O)cc12)C(=O)O; Pyridine(2,6-diCH2) = c1cc(C[*:1])nc(C[*:2])c1; Trp(7-F) = N[C@@H](Cc1c[nH]c2c(F)cccc12)C(=O)O; Phe(2,4-Cl2) = N[C@@H](Cc1ccc(Cl)cc1Cl)C(=O)O; Thz(5,5-Me2) = CC1(C)SCN[C@@H]1C(=O)O; Glutaryl = O=C(CCCC(=O)[*:2])[*:1]; Ser(ΨH,HPro) = O=C(O)[C@@H]1COCN1; Hyp = O=C(O)[C@@H]1C[C@@H](O)CN1; NMeE = CN[C@@H](CCC(=O)O)C(=O)O; Thz = O=C(O)[C@@H]1CSCN1; Thp = NC1(C(=O)O)CCOCC1
molecular target: T1, GIPR (CHO-K1-hGIPR cells) (Homo sapiens, UniProt P48546); assay: FACS binding assay; details: competition with 20 nM GIP-057, 4° C., 1 hour, read-out: pIC50 Category (converted)
T1 construct: host or cells: CHO-K1
T1 sequence (P48546 22-466): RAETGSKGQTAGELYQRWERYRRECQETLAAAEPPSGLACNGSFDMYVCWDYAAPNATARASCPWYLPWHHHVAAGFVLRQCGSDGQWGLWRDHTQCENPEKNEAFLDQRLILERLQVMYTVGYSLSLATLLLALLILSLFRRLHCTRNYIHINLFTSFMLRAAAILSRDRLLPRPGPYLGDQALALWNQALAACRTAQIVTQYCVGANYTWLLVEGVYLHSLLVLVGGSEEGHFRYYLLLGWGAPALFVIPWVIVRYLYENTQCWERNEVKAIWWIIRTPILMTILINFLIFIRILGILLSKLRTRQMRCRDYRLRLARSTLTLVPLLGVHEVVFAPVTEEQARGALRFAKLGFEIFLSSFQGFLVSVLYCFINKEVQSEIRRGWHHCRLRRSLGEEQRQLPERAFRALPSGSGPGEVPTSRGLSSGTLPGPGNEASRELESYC
Outline: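 CHO-K1 cells expressing human GIPR, washed in PBS/1% FCS, then stained with 1 μg/mL APC-streptavidin for 30 min on ice.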

| IC50 | SMILES |
| --- | --- |
| < 10 nM | CC[C@H](C)[C@@H]1NC(=O)[C@H](CC(C)C)NC(=O)C2(CCOCC2)NC(=O)[C@@H](NC(=O)[C@@H](NC(=O)[C@H](CCC(=O)O)NC(=O)[C@@H]2C[C@@H](O)CN2C(=O)[C@H](Cc2c[nH]c3ccc(Cl)cc23)NC(=O)[C@H](Cc2c[nH]c3ccccc23)NC(=O)[C@H](CC(=O)O)NC(C)=O)[C@@H](C)CC)CSCc2cccc(n2)CSC[C@@H](C(N)=O)NC1=O [GIP-218, Ac-Asp-Trp-5Clw-Hyp-Glu-Ile-[Cys(2Lut)-Thp-Leu-Ile-Cys]-NH2] (Ac-DW[Trp(5-Cl)][Hyp]EIC[Thp]LIC-NH2; linker 7-11 via Pyridine(2,6-diCH2)) |
| < 10 nM | CC[C@H](C)[C@@H]1NC(=O)[C@H](CC(C)C)NC(=O)C2(CCOCC2)NC(=O)[C@@H](NC(=O)[C@@H](NC(=O)[C@H](CCC(=O)O)NC(=O)[C@@H]2C[C@@H](O)CN2C(=O)[C@H](Cc2c[nH]c3ccc(Cl)cc23)NC(=O)[C@H](Cc2c[nH]c3ccccc23)NC(=O)[C@H](CC(=O)O)NC(C)=O)C(C)C)CSCc2cccc(n2)CSC[C@@H](C(N)=O)NC1=O [GIP-219, Ac-Asp-Trp-5Clw-Hyp-Glu-Val-[Cys(2Lut)-Thp-Leu-Ile-Cys]-NH2] (Ac-DW[Trp(5-Cl)][Hyp]EVC[Thp]LIC-NH2; linker 7-11 via Pyridine(2,6-diCH2)) |
| < 10 nM | CC[C@H](C)[C@@H]1NC(=O)[C@H](CC(C)C)NC(=O)C2(CCOCC2)NC(=O)[C@@H](NC(=O)[C@@H](CC(C)C)NC(=O)[C@H](CCC(=O)O)NC(=O)[C@@H]2C[C@@H](O)CN2C(=O)[C@H](Cc2c[nH]c3ccc(Cl)cc23)NC(=O)[C@H](Cc2c[nH]c3ccc(O)cc23)NC(=O)[C@H](CC(=O)O)NC(C)=O)CSCc2cccc(n2)CSC[C@@H](C(N)=O)NC1=O [GIP-220, Ac-Asp-Hyw-5Clw-Hyp-Glu-leu-[Cys(2Lut)-Thp-Leu-Ile-Cys]-NH2] (Ac-D[Trp(5-OH)][Trp(5-Cl)][Hyp]E[dL]C[Thp]LIC-NH2; linker 7-11 via Pyridine(2,6-diCH2)) |
| < 10 nM | CC[C@H](C)[C@@H]1NC(=O)[C@H](CC(C)C)NC(=O)C2(CCOCC2)NC(=O)[C@@H](NC(=O)[C@@H](CC(C)C)NC(=O)[C@H](CCC(=O)O)NC(=O)[C@@H]2C[C@@H](O)CN2C(=O)[C@H](Cc2c[nH]c3ccc(Cl)cc23)NC(=O)[C@H](Cc2c[nH]c3c(F)cccc23)NC(=O)[C@H](CC(=O)O)NC(C)=O)CSCc2cccc(n2)CSC[C@@H](C(N)=O)NC1=O [GIP-221, Ac-Asp-7Fw-5Clw-Hyp-Glu-leu-[Cys(2Lut)-Thp-Leu-Ile-Cys]-NH2] (Ac-D[Trp(7-F)][Trp(5-Cl)][Hyp]E[dL]C[Thp]LIC-NH2; linker 7-11 via Pyridine(2,6-diCH2)) |
| < 10 nM | CC[C@H](C)[C@@H]1NC(=O)[C@H](CC(C)C)NC(=O)C2(CCOCC2)NC(=O)[C@@H](NC(=O)[C@@H](CC(C)C)NC(=O)[C@H](CCC(=O)O)NC(=O)[C@@H]2CSCN2C(=O)[C@H](Cc2c[nH]c3ccc(Cl)cc23)NC(=O)[C@H](Cc2c[nH]c3ccccc23)NC(=O)[C@H](CC(=O)O)NC(C)=O)CSCc2cccc(n2)CSC[C@@H](C(N)=O)NC1=O [GIP-222, Ac-Asp-Trp-5Clw-Eaz-Glu-leu-[Cys(2Lut)-Thp-Leu-Ile-Cys]-NH2] (Ac-DW[Trp(5-Cl)][Thz]E[dL]C[Thp]LIC-NH2; linker 7-11 via Pyridine(2,6-diCH2)) |
| < 10 nM | CC[C@H](C)[C@@H]1NC(=O)[C@H](CC(C)C)NC(=O)C2(CCOCC2)NC(=O)[C@@H](NC(=O)[C@H](CC(C)C)NC(=O)[C@@H](CCC(=O)O)NC(=O)[C@@H]2C[C@@H](O)CN2C(=O)[C@H](Cc2c[nH]c3ccc(Cl)cc23)NC(=O)[C@H](Cc2c[nH]c3ccccc23)NC(=O)[C@H](CC(=O)O)NC(C)=O)CSCc2cccc(n2)CSC[C@@H](C(N)=O)NC1=O [GIP-223, Ac-Asp-Trp-5Clw-Eaz-Glu-leu-[Cys(2Lut)-Thp-Leu-Ile-Cys]-NH2] (Ac-DW[Trp(5-Cl)][Hyp][dE]LC[Thp]LIC-NH2; linker 7-11 via Pyridine(2,6-diCH2)) |

The next lines start with the molecule.

| SMILES | IC50 |
| --- | --- |
| CC[C@H](C)[C@@H]1NC(=O)[C@H](CC(C)C)NC(=O)C2(CCOCC2)NC(=O)[C@@H](NC(=O)[C@@H](CC(C)C)NC(=O)[C@H](CCC(=O)O)NC(=O)[C@@H]2C[C@@H](O)CN2C(=O)[C@H](Cc2c[nH]c3ccc(Cl)cc23)NC(=O)[C@H](Cc2ccc(Cl)c(Cl)c2)NC(=O)[C@H](CC(=O)O)NC(C)=O)CSCc2cccc(n2)CSC[C@@H](C(N)=O)NC1=O [GIP-211, Ac-Asp-Eaa-5Clw-Hyp-Glu-leu-[Cys(2Lut)-Thp-Leu-Ile-Cys]-NH2] (Ac-D[Phe(3,4-Cl2)][Trp(5-Cl)][Hyp]E[dL]C[Thp]LIC-NH2; linker 7-11 via Pyridine(2,6-diCH2)) | < 10 nM |
| CC[C@H](C)[C@@H]1NC(=O)[C@H](CC(C)C)NC(=O)C2(CCOCC2)NC(=O)[C@@H](NC(=O)[C@@H](CC(C)C)NC(=O)[C@H](CCC(=O)O)NC(=O)[C@@H]2C[C@@H](O)CN2C(=O)[C@H](Cc2c[nH]c3ccc(Cl)cc23)NC(=O)[C@H](Cc2ccc(Cl)cc2Cl)NC(=O)[C@H](CC(=O)O)NC(C)=O)CSCc2cccc(n2)CSC[C@@H](C(N)=O)NC1=O [GIP-212, Ac-Asp-Egm-5Clw-Hyp-Glu-leu-[Cys(2Lut)-Thp-Leu-Ile-Cys]-NH2] (Ac-D[Phe(2,4-Cl2)][Trp(5-Cl)][Hyp]E[dL]C[Thp]LIC-NH2; linker 7-11 via Pyridine(2,6-diCH2)) | < 10 nM |
| CC[C@H](C)[C@@H]1NC(=O)[C@H](CC(C)C)NC(=O)C2(CCOCC2)NC(=O)[C@@H](NC(=O)[C@@H](CC(C)C)NC(=O)[C@H](CCC(=O)O)NC(=O)[C@@H]2C[C@@H](O)CN2C(=O)[C@H](Cc2ccc(Cl)c(Cl)c2)NC(=O)[C@H](Cc2c[nH]c3ccccc23)NC(=O)[C@H](CC(=O)O)NC(C)=O)CSCc2cccc(n2)CSC[C@@H](C(N)=O)NC1=O [GIP-213, Ac-Asp-Trp-Eaa-Hyp-Glu-leu-[Cys(2Lut)-Thp-Leu-Ile-Cys]-NH2] (Ac-DW[Phe(3,4-Cl2)][Hyp]E[dL]C[Thp]LIC-NH2; linker 7-11 via Pyridine(2,6-diCH2)) | < 10 nM |
| CC[C@H](C)[C@@H]1NC(=O)[C@H](CC(C)C)NC(=O)C2(CCOCC2)NC(=O)[C@@H](NC(=O)[C@@H](CC(C)C)NC(=O)[C@H](CCC(=O)O)NC(=O)[C@@H]2C[C@@H](O)CN2C(=O)[C@H](Cc2c[nH]c3ccc(Cl)cc23)NC(=O)[C@H](Cc2c[nH]c3ccccc23)NC(=O)CCCC(=O)O)CSCc2cccc(n2)CSC[C@@H](C(N)=O)NC1=O [GIP-214, HO-Glutar-Trp-5Clw-Hyp-Glu-leu-[Cys(2Lut)-Thp-Leu-Ile-Cys]-NH2] (Glutaryl-W[Trp(5-Cl)][Hyp]E[dL]C[Thp]LIC-NH2; linker 6-10 via Pyridine(2,6-diCH2)) | < 10 nM |
| CC[C@H](C)[C@@H]1NC(=O)[C@H](CC(C)C)NC(=O)C2(CCOCC2)NC(=O)[C@@H](NC(=O)[C@@H](CC(C)C)NC(=O)[C@H](CCC(=O)O)NC(=O)[C@H]2N(C(=O)[C@H](Cc3c[nH]c4ccc(Cl)cc34)NC(=O)[C@H](Cc3c[nH]c4ccccc34)NC(=O)[C@H](CC(=O)O)NC(C)=O)CSC2(C)C)CSCc2cccc(n2)CSC[C@@H](C(N)=O)NC1=O [GIP-215, Ac-Asp-Trp-5Clw-Dtc-Glu-leu-[Cys(2Lut)-Thp-Leu-Ile-Cys]-NH2] (Ac-DW[Trp(5-Cl)][Thz(5,5-Me2)]E[dL]C[Thp]LIC-NH2; linker 7-11 via Pyridine(2,6-diCH2)) | < 10 nM |
| CC[C@H](C)[C@@H]1NC(=O)[C@H](CC(C)C)NC(=O)C2(CCOCC2)NC(=O)[C@@H](NC(=O)[C@@H](CC(C)C)NC(=O)[C@H](CCC(=O)O)NC(=O)[C@@H]2COCN2C(=O)[C@H](Cc2c[nH]c3ccc(Cl)cc23)NC(=O)[C@H](Cc2c[nH]c3ccccc23)NC(=O)[C@H](CC(=O)O)NC(C)=O)CSCc2cccc(n2)CSC[C@@H](C(N)=O)NC1=O [GIP-216, Ac-Asp-Trp-5Clw-Oxa-Glu-leu-[Cys(2Lut)-Thp-Leu-Ile-Cys]-NH2] (Ac-DW[Trp(5-Cl)][Ser(ΨH,HPro)]E[dL]C[Thp]LIC-NH2; linker 7-11 via Pyridine(2,6-diCH2)) | < 10 nM |
| CC[C@H](C)[C@@H]1NC(=O)[C@H](CC(C)C)NC(=O)C2(CCOCC2)NC(=O)[C@@H](NC(=O)[C@H](CC(C)C)NC(=O)[C@H](CCC(=O)O)N(C)C(=O)[C@@H]2C[C@@H](O)CN2C(=O)[C@H](Cc2c[nH]c3ccc(Cl)cc23)NC(=O)[C@H](Cc2c[nH]c3ccccc23)NC(=O)[C@H](CC(=O)O)NC(C)=O)CSCc2cccc(n2)CSC[C@@H](C(N)=O)NC1=O [GIP-217, Ac-Asp-Trp-5Clw-Hyp-Nme-Leu-[Cys(2Lut)-Thp-Leu-Ile-Cys]-NH2] (Ac-DW[Trp(5-Cl)][Hyp][NMeE]LC[Thp]LIC-NH2; linker 7-11 via Pyridine(2,6-diCH2)) | < 10 nM |
| CC[C@H](C)[C@@H]1NC(=O)[C@H](CC(C)C)NC(=O)C2(CCOCC2)NC(=O)[C@@H](NC(=O)[C@@H](CC(C)C)NC(=O)[C@H](CCC(=O)O)NC(=O)[C@@H]2C[C@@H](O)CN2C(=O)[C@H](Cc2c[nH]c3ccc(Cl)cc23)NC(=O)[C@H](Cc2ccccc2)NC(=O)[C@H](CC(=O)O)NC(C)=O)CSCc2cccc(n2)CSC[C@@H](C(N)=O)NC1=O [GIP-224, Ac-Asp-Phe-5Clw-Hyp-Glu-leu-[Cys(2Lut)-Thp-Leu-Ile-Cys]-NH2] (Ac-DF[Trp(5-Cl)][Hyp]E[dL]C[Thp]LIC-NH2; linker 7-11 via Pyridine(2,6-diCH2)) | < 10 nM |

Source: patent US20250296971A1, “GASTRIC INHIBITORY PEPTIDE RECEPTOR LIGANDS” (priority 2021, published 2025)
